# Experimental data from patent US8946438B2, “Benzamides, production thereof, and use thereof as medicaments” (Boehringer Ingelheim International GmbH, priority 2008, dated 2015).
# Target: p38 MAP-kinase (Homo sapiens, UniProt Q16539)
# Assay: Enzymatic assay: inhibition of p38 MAP-kinase (phosphorylation of GST-tagged ATF2, chemoluminescence bead readout)
# Type: biochemical
# Settings: inhibitor 1 μM; activated p38 MAP-kinase 1 nM; 4 h preincubation; ATP 100 μM; ATF2 10 nM; read-out: % inhibitory effect at 1 μM
# Outline: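 Activated human p38 MAP-kinase (1 nM) preincubated 4 h at ambient temperature with compound at 1 μM in HEPES pH 7, MgCl2, DTT, Tween20. Then reacted 1 h with GST-ATF2 (10 nM) and ATP (100 μM). Phospho-ATF2 read by bead chemoluminescence at 520-620 nm, given as % inhibition at 1 μM versus kinase-free background.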
# p38 MAP-kinase, sequence (Q16539 whole entry): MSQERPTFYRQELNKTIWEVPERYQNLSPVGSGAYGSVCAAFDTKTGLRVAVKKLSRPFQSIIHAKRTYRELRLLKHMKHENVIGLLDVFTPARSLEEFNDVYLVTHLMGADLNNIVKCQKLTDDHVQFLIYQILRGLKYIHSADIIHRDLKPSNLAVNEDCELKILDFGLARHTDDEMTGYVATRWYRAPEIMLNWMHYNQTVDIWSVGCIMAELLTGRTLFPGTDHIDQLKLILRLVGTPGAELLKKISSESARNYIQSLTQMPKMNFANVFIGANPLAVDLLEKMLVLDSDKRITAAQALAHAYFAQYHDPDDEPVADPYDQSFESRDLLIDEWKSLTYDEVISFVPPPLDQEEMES
row,inhibition at 1 µM [%],Compound
1,98.3,"COc1c(NC(=O)c2ccc(Cl)c(Oc3ccnc(N4CCNCC4)n3)c2)cc(C(C)(C)C)cc1NS(C)(=O)=O [5(5), N-(5-tert-butyl-3-methanesulphonylamino-2-methoxy-phenyl)-4-chloro-3-(2-piperazin-1-yl-pyrimidin-4-yloxy)-benzamide]"
2,99.5,"COc1c(NC(=O)c2ccc(C)c(Oc3ccnc(CC4CCNCC4)c3)c2)cc(C(C)(C)C)cc1NS(C)(=O)=O [5(20), N-(5-tert-butyl-3-methanesulphonylamino-2-methoxy-phenyl)-4-methyl-3-(2-piperidin-4-ylmethyl-pyridin-4-yloxy)-benzamide]"
3,98.7,"COc1c(NC(=O)c2ccc(C)c(Oc3cc(CC4CCNCC4)ncn3)c2)cc(C(C)(C)C)cc1NS(C)(=O)=O [5(18), N-(5-tert-butyl-3-methanesulphonylamino-2-methoxy-phenyl)-4-methyl-3-(6-piperidin-4-ylmethyl-pyrimidin-4-yloxy)-benzamide]"
4,97.1,"COc1c(NC(=O)c2ccc(Cl)c(Oc3ccnc(CN(C)CCN(C)C)c3)c2)cc(C(C)(C)C)cc1NS(C)(=O)=O [8(33), N-(5-tert-butyl-3-methanesulphonylamino-2-methoxy-phenyl)-4-chloro-3-(2-{[(2-dimethylamino-ethyl)-methyl-amino]-methyl}-pyridin-4-yloxy)-benzamide]"
5,99,"COc1c(NC(=O)c2ccc(Cl)c(Oc3ccnc(CC4CCNCC4)c3)c2)cc(C(C)(C)C)cc1NS(C)(=O)=O [5(29), N-(5-tert-butyl-3-methanesulphonylamino-2-methoxy-phenyl)-4-chloro-3-(2-piperidin-4-ylmethyl-pyridin-4-yloxy)-benzamide]"
6,99.2,"COc1c(NC(=O)c2ccc(C)c(Oc3ccnc(CC4CCNCC4)c3)c2)cc(C(F)(F)F)cc1NS(C)(=O)=O [5(49), N-(3-methanesulphonylamino-2-methoxy-5-trifluoromethyl-phenyl)-4-methyl-3-(2-piperidin-4-ylmethyl-pyridin-4-yloxy)-benzamide]"
7,95,"COc1c(NC(=O)c2ccc(Cl)c(Oc3cc(C(=O)N4CCNCC4)ncn3)c2)cc(C(C)(C)C)cc1NS(C)(=O)=O [5(3), N-(5-tert-butyl-3-methanesulphonylamino-2-methoxy-phenyl)-4-chloro-3-[6-(piperazine-1-carbonyl)-pyrimidin-4-yloxy]-benzamide]"
8,99.5,"COc1c(NC(=O)c2ccc(C)c(Oc3ccnc(CC4CCCNCC4)c3)c2)cc(C(C)(C)C)cc1NS(C)(=O)=O (centres unmarked) [5(52), 3-(2-azepan-4-ylmethyl-pyridin-4-yloxy)-N-(5-tert-butyl-3-methanesulphonylamino-2-methoxy-phenyl)-4-methyl-benzamide]"
9,97,"COc1c(NC(=O)c2ccc(C)c(Oc3ccnc(CN4CC[C@@H](O)C4)c3)c2)cc(C(C)(C)C)cc1NS(C)(=O)=O [8(12), (R)-N-(5-tert-butyl-3-methanesulphonylamino-2-methoxy-phenyl)-3-[2-(3-hydroxy-pyrrolidin-1-ylmethyl)-pyridin-4-yloxy]-4-methyl-benzamide]"
10,99.2,"COc1c(NC(=O)c2ccc(Cl)c(Oc3cc(CC4CCNCC4)ncn3)c2)cc(C(C)(C)C)cc1NS(C)(=O)=O [5(33), N-(5-tert-butyl-3-methanesulphonylamino-2-methoxy-phenyl)-4-chloro-3-(6-piperidin-4-ylmethyl-pyrimidin-4-yloxy)-benzamide]"
11,99.2,"COc1c(NC(=O)c2ccc(Cl)c(Oc3cc(NC4CCNCC4)ncn3)c2)cc(C(C)(C)C)cc1NS(C)(=O)=O [Example 11, N-(5-tert-butyl-3-methanesulphonylamino-2-methoxy-phenyl)-4-chloro-3-[6-(piperidin-4-ylamino)-pyrimidin-4-yloxy]-benzamide]"
12,97.7,"COc1c(NC(=O)c2ccc(C)c(Oc3ccncc3)c2)cc(C(C)(C)C)cc1NS(C)(=O)=O [Example 2, N-(5-tert-butyl-3-methanesulphonylamino-2-methoxy-phenyl)-4-methyl-3-(pyridin-4-yloxy)-benzamide]"
13,98.2,"COc1c(NC(=O)c2ccc(C)c(Oc3cc(NC4CCNCC4)ncn3)c2)cc(C(C)(C)C)cc1NS(C)(=O)=O [5(17), N-(5-tert-butyl-3-methanesulphonylamino-2-methoxy-phenyl)-4-methyl-3-[6-(piperidin-4-ylamino)-pyrimidin-4-yloxy]-benzamide x trifluoroacetic acid]"

# The remaining lines, values behind:
row,Compound,inhibition at 1 µM [%]
1,"CNCc1nccc(Oc2cc(C(=O)Nc3cc(C(C)(C)C)cc(NS(C)(=O)=O)c3OC)ccc2C)n1 [8(4), N-(5-tert-butyl-3-methanesulphonylamino-2-methoxy-phenyl)-4-methyl-3-(2-methylaminomethyl-pyrimidin-4-yloxy)-benzamide]",66
2,"COc1c(NC(=O)c2ccc(C)c(Oc3cc(N4CCNCC4)ncn3)c2)cc(C(C)(C)C)cc1NS(C)(=O)=O [5(1), N-(5-tert-butyl-3-methanesulphonylamino-2-methoxy-phenyl)-4-methyl-3-(6-piperazin-1-yl-pyrimidin-4-yloxy)-benzamide]",96.8
3,"COc1c(NC(=O)c2ccc(C)c(Oc3ccnc(N(C)C4CCN(C)CC4)n3)c2)cc(C(C)(C)C)cc1NS(C)(=O)=O [4(16), N-(5-tert-butyl-3-methanesulphonylamino-2-methoxy-phenyl)-4-methyl-3-{2-[methyl-(1-methyl-piperidin-4-yl)-amino]-pyrimidin-4-yloxy}-benzamide]",99.4
4,"COc1c(NC(=O)c2cc(C)cc(Oc3ccnc(CN4CCN(C)CC4)n3)c2)cc(C(C)(C)C)cc1NS(C)(=O)=O [8(28), N-(5-tert-butyl-3-methanesulphonylamino-2-methoxy-phenyl)-3-methyl-5-[2-(4-methyl-piperazin-1-ylmethyl)-pyrimidin-4-yloxy]-benzamide]",81.8
5,"COc1c(NC(=O)c2ccc(C)c(Oc3cc(N4CCNC(=O)C4)ncn3)c2)cc(C(C)(C)C)cc1NS(C)(=O)=O [4(3), N-(5-tert-butyl-3-methanesulphonylamino-2-methoxy-phenyl)-4-methyl-3-[6-(3-oxo-piperazin-1-yl)-pyrimidin-4-yloxy]-benzamide]",96.3
6,"COc1c(NC(=O)c2ccc(C)c(Oc3ccnc(CN4CCNCC4)n3)c2)cc(C(C)(C)C)cc1NS(C)(=O)=O [5(6), N-(5-tert-butyl-3-methanesulphonylamino-2-methoxy-phenyl)-4-methyl-3-(2-piperazin-1-ylmethyl-pyrimidin-4-yloxy)-benzamide]",98.3
7,"COc1c(NC(=O)c2ccc(C)c(Oc3cc[n+]([O-])cc3)c2)cc(C(C)(C)C)cc1NS(C)(=O)=O [Example 1, N-(5-tert-butyl-3-methanesulphonylamino-2-methoxy-phenyl)-4-methyl-3-(1-oxy-pyridin-4-yloxy)-benzamide]",90.8
8,"COc1c(NC(=O)c2ccc(C)c(Oc3ccnc(CN4CCN(C)CC4)n3)c2)cc(C(C)(C)C)cc1[S+](C)[O-] (centres unmarked) [13(1), N-(5-tert-butyl-3-methanesulphinyl-2-methoxy-phenyl)-4-methyl-3-[2-(4-methyl-piperazin-1-ylmethyl)-pyrimidin-4-yloxy]-benzamide]",97
9,"COc1c(NC(=O)c2ccc(C)c(Oc3ccnc(CN4CCCN(C)CC4)n3)c2)cc(C(C)(C)C)cc1NS(C)(=O)=O [8(16), N-(5-tert-butyl-3-methanesulphonylamino-2-methoxy-phenyl)-4-methyl-3-[2-(4-methyl-homopiperazin-1-ylmethyl)-pyrimidin-4-yloxy]-benzamide]",98.7
10,"COc1c(NC(=O)c2ccc(C)c(Oc3cc(NC4CCN(C)CC4)ncn3)c2)cc(C(C)(C)C)cc1NS(C)(=O)=O [4(10), N-(5-tert-butyl-3-methanesulphonylamino-2-methoxy-phenyl)-4-methyl-3-[6-(1-methyl-piperidin-4-ylamino)-pyrimidin-4-yloxy]-benzamide]",100
11,"COc1c(NC(=O)c2cc(C)cc(Oc3ccnc(CN4CCNCC4)n3)c2)cc(C(C)(C)C)cc1NS(C)(=O)=O [5(22), N-(5-tert-butyl-3-methanesulphonylamino-2-methoxy-phenyl)-3-methyl-5-(2-piperazin-1-ylmethyl-pyrimidin-4-yloxy)-benzamide]",85.7
12,"COc1c(NC(=O)c2ccc(C)c(Oc3ccnc(CN4CC[C@H](N(C)C)C4)n3)c2)cc(C(C)(C)C)cc1NS(C)(=O)=O [8(21), (S)-N-(5-tert-butyl-3-methanesulphonylamino-2-methoxy-phenyl)-3-[2-(3-dimethylamino-pyrrolidin-1-ylmethyl)-pyrimidin-4-yloxy]-4-methyl-benzamide]",98.5
13,"COc1c(NC(=O)c2ccc(C)c(Oc3cc(CN(C)CCN(C)C)ncn3)c2)cc(C(C)(C)C)cc1NS(C)(=O)=O [8(30), N-(5-tert-butyl-3-methanesulphonylamino-2-methoxy-phenyl)-3-(6-{[(2-dimethylamino-ethyl)-methyl-amino]-methyl}-pyrimidin-4-yloxy)-4-methyl-benzamide]",91.3
14,"COc1c(NC(=O)c2cc(C)cc(Oc3ccncc3)c2)cc(C(C)(C)C)cc1NS(C)(=O)=O [Example 6, N-(5-tert-butyl-3-methanesulphonylamino-2-methoxy-phenyl)-3-methyl-5-(pyridin-4-yloxy)-benzamide]",94.4
15,"COc1c(NC(=O)c2ccc(C)c(Oc3cc(N4CCOCC4)ncn3)c2)cc(C(C)(C)C)cc1NS(C)(=O)=O [4(5), N-(5-tert-butyl-3-methanesulphonylamino-2-methoxy-phenyl)-4-methyl-3-(6-morpholin-4-yl-pyrimidin-4-yloxy)-benzamide]",97.4
16,"COc1c(NC(=O)c2ccc(C)c(Oc3cc(NCCN(C)C)ncn3)c2)cc(C(C)(C)C)cc1NS(C)(=O)=O [4(2), N-(5-tert-butyl-3-methanesulphonylamino-2-methoxy-phenyl)-3-[6-(2-dimethylamino-ethylamino)-pyrimidin-4-yloxy]-4-methyl-benzamide]",94.8
